This note sets out measurements from PubChem BioAssay (NCI).

Test systems include LXFL 529 NSCLC; DMS 273 small cell lung; SNB-78 CNS; DLD-1 colon; HOP-18 NSCLC; SN12K1 renal; P388 leukemia; P388/ADR leukemia.
Common to all, as to experiment: NCI tumour cell line growth inhibition, 48 h

“And” between values parts separate entries of the source, which are not always exact repeats. Equal entries are not always repeated.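 Growth conditions: 96-well plates. Treatment: test compound, 48 hours, 5 concentrations. Analysis: linear interpolation between bracketing concentrations; unreached endpoints set to highest concentration. GI50 is the concentration that inhibits growth by half. Definition used: TGI = concentration required for complete inhibition of growth.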

As to `COc1cccc(NC(=O)CC(=O)NN2C(=O)/C(=C/c3ccc(N(CCC#N)CCC#N)cc3)N=C2c2cc([N+](=O)[O-])ccc2Cl)c1`, the TGI in the test with LXFL 529 NSCLC, with DMS 273 small cell lung, in the test with SNB-78 CNS and in the test on DLD-1 colon was > 100 µM in each case.

Regarding `COc1ccc(N=Cc2ccc(N(CCC#N)S(=O)(=O)c3ccccc3)cc2C)cc1`, the TGI with LXFL 529 NSCLC, in the test with SNB-78 CNS and in the test with HOP-18 NSCLC was > 100 µM throughout.

With `C[C@H]1CCC/C=C/[C@@H]2C[C@H](O)C[C@H]2[C@H](O)/C=C/C(=O)O1`, the GI50 is 0.031 µM with LXFL 529 NSCLC, 0.0305 µM with DMS 273 small cell lung, 0.0324 µM in the test with SNB-78 CNS and 0.0381 µM in the test on DLD-1 colon. Besides, the TGI with LXFL 529 NSCLC is 0.0285 µM and 0.11 µM; with DMS 273 small cell lung, 0.148 µM; with SNB-78 CNS, > 100 µM; in the test with HOP-18 NSCLC, 2.41 µM; in the test with DLD-1 colon, 17.3 µM.

For the compound `CCCCCCCCCCCCCCCCCC(=O)OCC1OC(OC)C(NC(=O)N(CCCl)N=O)C(O)C1O` (centres undefined), the TGI was 37.5 µM with LXFL 529 NSCLC; 56.9 µM in the test with DMS 273 small cell lung; > 100 µM with SNB-78 CNS; > 100 µM in the test with HOP-18 NSCLC; > 100 µM in the test with DLD-1 colon.

Turning to `O=C([CH-]C(=O)c1ccccc1)c1ccccc1.O=C([CH-]C(=O)c1ccccc1)c1ccccc1.O=C([CH-]C(=O)c1ccccc1)c1ccccc1.[Cl-].[Hf+4]`, in the test on HOP-18 NSCLC, the GI50 is 5.66 µM and the TGI was determined as 24.8 µM.

Take `COc1ccc(N=Nc2c(N)nn(C)c2N)cc1`: the TGI in the test with LXFL 529 NSCLC, with DMS 273 small cell lung, in the test on SNB-78 CNS, in the test with HOP-18 NSCLC and in the test on DLD-1 colon was > 100 µM throughout.

`CCCCCCCCCCCCSC(=S)c1c(C)[nH]n(CCCCCCCCCCCC)c1=O`: the TGI in the test on LXFL 529 NSCLC, with SNB-78 CNS, in the test on HOP-18 NSCLC and in the test with DLD-1 colon was > 100 µM in each case.

As for `CCN(CCO)CCNc1ccc(C)c2sc3ccccc3c(=O)c12`, the TGI was 10.4 µM with LXFL 529 NSCLC; 6.94 µM in the test on DMS 273 small cell lung; 20.6 µM in the test with SNB-78 CNS; 24.3 µM in the test with HOP-18 NSCLC; 14.2 µM in the test with DLD-1 colon.

Turning to `O=C(CSSCC(=O)OCCS(=O)(=O)Nc1ccc(Br)cc1)OCCS(=O)(=O)Nc1ccc(Br)cc1`, the TGI in the test on LXFL 529 NSCLC was 34.1 µM; with DMS 273 small cell lung it was 40.3 µM; with SNB-78 CNS, 71.3 µM; with HOP-18 NSCLC, > 100 µM; with DLD-1 colon, > 100 µM.

Consider `CN1NC(c2ccccc2)=C(C#N)C(=O)CC1c1ccc(F)cc1` (centres undefined), for which the TGI in the test with LXFL 529 NSCLC, with DMS 273 small cell lung, in the test with SNB-78 CNS, in the test with HOP-18 NSCLC and with DLD-1 colon was > 100 µM throughout.

For the compound `O=C(NC(Cc1ccc(Cl)cc1)C(=O)O)c1ccc(I)cc1` (centres undefined), the TGI with SN12K1 renal, in the test on DMS 273 small cell lung, in the test with P388 leukemia, with P388/ADR leukemia, in the test on SNB-78 CNS and with HOP-18 NSCLC was > 100 µM throughout. Moreover, the TGI in the test with DLD-1 colon was > 100 µM.
